Results on nine compounds are retold here after patent US20220089599A1, “ALKYNYL NICOTINAMIDE COMPOUNDS AS KINASE INHIBITORS” (PURDUE RESEARCH FOUNDATION, priority 2018, published 2022).

Like-named read-outs stand apart in the source and are kept apart here. Some results are limits rather than exact numbers.

One experiment concerns MOLM14. The format is cell-based. Particulars: Homo sapiens.
For a further experiment, the system named is KCL22-IR. The format is cell-based. The conditions noted are these: read-out: IC50 KCL22-IR.
The test system of another experiment is K562. The format is cell-based. Particulars: Homo sapiens.
A further experiment deals with MOLM14-D835Y. The class given is cell-based.
The subject of another experiment is KCL22. The format is cell-based. Particulars: Homo sapiens.
In a further experiment the test system is MOLM14-F691L. The format is cell-based. The conditions noted are these: Homo sapiens.
Another experiment deals with MV-4-11. The format is cell-based. Particulars: Homo sapiens.
In a further experiment the test system is MOLM13-res. The format is cell-based. Particulars: read-out: IC50 MOLM13-res.
A further experiment deals with c-SRC (Homo sapiens, UniProt P12931). The experiment in a line: Kinase IC50 at Reaction Biology. The class given is biochemical.
A further experiment has as its system H520. The class given is cell-based. Particulars: Homo sapiens.
The next experiment has as its system LC2/Ad. The experiment is described as follows: cells. The conditions noted are these: Homo sapiens, LC-2-ad, read-out: IC50 LC2/Ad.
[1] abbreviates: cell activities of other nicotinamide compounds, MOLM-14, read-out: IC50 MOLM-14.
[2] abbreviates: cell activities of other nicotinamide compounds, KCL22-IR.
Where [3] appears, read: cell activities of other nicotinamide compounds, K562, read-out: IC50 K562.
Where [4] appears, read: Homo sapiens, cell activities of other nicotinamide compounds, MOLM-14 (ITD, D85Y), read-out: IC50 MOLM-14 (ITD, D85Y).
[5] abbreviates: KCL-22, cell activities of other nicotinamide compounds, KCL22, read-out: IC50 KCL22.
[6] abbreviates: cell activities of other nicotinamide compounds, MOLM-14 (ITD, F691L), read-out: IC50 MOLM-14 (ITD, F691L).

c-SRC, sequence (P12931 whole entry): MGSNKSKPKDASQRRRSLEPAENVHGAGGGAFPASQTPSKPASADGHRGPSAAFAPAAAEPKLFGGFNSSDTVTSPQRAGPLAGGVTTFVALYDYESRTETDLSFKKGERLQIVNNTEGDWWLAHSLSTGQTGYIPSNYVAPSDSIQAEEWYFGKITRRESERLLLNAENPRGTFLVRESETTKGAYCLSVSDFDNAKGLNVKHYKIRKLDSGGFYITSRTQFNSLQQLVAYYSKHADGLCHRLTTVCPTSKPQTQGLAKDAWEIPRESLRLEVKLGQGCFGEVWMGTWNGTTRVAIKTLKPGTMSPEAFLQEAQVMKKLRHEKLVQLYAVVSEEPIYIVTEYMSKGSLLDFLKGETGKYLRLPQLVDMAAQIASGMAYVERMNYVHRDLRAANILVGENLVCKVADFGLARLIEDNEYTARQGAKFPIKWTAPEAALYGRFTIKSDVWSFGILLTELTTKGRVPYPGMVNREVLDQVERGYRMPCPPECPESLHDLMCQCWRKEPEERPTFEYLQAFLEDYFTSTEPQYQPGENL

Regarding `CN1CCN(Cc2ccc(NC(=O)c3cncc(C#Cc4cnc5cnccn45)c3)cc2C(F)(F)F)CC1` [HSL385, 5-(imidazo[1,2-a]pyrazin-3-ylethynyl)-N-(4-((4-methylpiperazin-1-yl)methyl)-3-(trifluoromethyl)phenyl)nicotinamide], the IC50 with MOLM14 (setting [1]) worked out at 0.15 ± 0.007 nM; with KCL22-IR (setting [2]) it was 17.2 ± 0.8 nM; with K562 (setting [3]), 0.94 ± 0.002 nM; in the experiment with MOLM14-D835Y (setting [4]), 28.5 ± 0.9 nM; in the experiment on KCL22 (setting [5]) it was 2.62 ± 0.06 nM.

Take `CN1CCN(Cc2ccc(NC(=O)c3cncc(C#Cc4cnc5ccccn45)c3)cc2C(F)(F)F)CC1` [HSL381, 5-(imidazo[1,2-a]pyridin-3-ylethynyl)-N-(4-((4-methylpiperazin-1-yl)methyl)-3-(trifluoromethyl)phenyl)nicotinamide]: the IC50 came to 0.55 ± 0.06 nM in the experiment on MOLM14-F691L (setting [6]); 0.04 ± 0.006 nM in the experiment on MOLM14 (setting [1]); 4.24 ± 0.05 nM in the experiment with KCL22-IR (setting [2]); 0.57 ± 0.003 nM in the experiment with K562 (setting [3]); 7.12 ± 0.06 nM in the experiment with MOLM14-D835Y (setting [4]); 0.89 ± 0.005 nM in the experiment on KCL22 (setting [5]).

Consider `CN1CCN(Cc2ccc(NC(=O)c3cncc(C#Cc4cnc5cccnn45)c3)cc2C(F)(F)F)CC1` [HSN748, 5-(imidazo[1,2-b]pyridazin-3-ylethynyl)-N-(4-((4-methylpiperazin-1-yl)methyl)-3-(trifluoromethyl)phenyl)nicotinamide], for which the IC50 in the experiment on MOLM14-F691L (MOLM-14, growth inhibition, gilteritinib-resistant AML cell line Molm14 (ITD, F691L), read-out: IC50 MOLM14-F691L) worked out at 0.18 nM; with MOLM14 (MOLM-14, growth inhibition, MOLM14 cell line, read-out: IC50 MOLM14), 0.05 nM; with KCL22-IR (growth inhibition, KCL22-IR cell line) it was 0.23 nM; in the experiment with K562 (growth inhibition, K562 (ABL1) cell line, read-out: IC50 K562), 0.8 nM; with MV-4-11 (MV4-11, growth inhibition, MV-4-11 (FLT3) cell line, read-out: IC50 MV-4-11), 0.07 nM; in the experiment with MOLM13-res (growth inhibition, MOLM13-res cell line), 1.73 nM. Also, the IC50 in the experiment on MOLM14-D835Y (growth inhibition, quizartinib-resistant AML cell line, read-out: IC50 MOLM14-D835Y) was 0.69 nM; with KCL22 (KCL-22, growth inhibition, KCL22 cell line, read-out: IC50 KCL22), 1.32 nM; on c-SRC ([ATP] = 100 μM, read-out: IC50 c-SRC), more than 1000 nM; at c-SRC (read-out: IC50 c-Src kinase), more than 1000 nM; in the experiment with H520 (NCI-H520, growth inhibition, H520 cell line, read-out: IC50 H520), 839 nM.

With `CN1CCN(Cc2ccc(NC(=O)c3cncc(C#Cc4cnc5ccnn5c4)c3)cc2C(F)(F)F)CC1` [HSL412, N-(4-((4-methylpiperazin-1-yl)methyl)-3-(trifluoromethyl)phenyl)-5-(pyrazolo[1,5-a]pyrimidin-6-ylethynyl)nicotinamide], the IC50 is 17.8 ± 1.3 nM with MOLM14-F691L (setting [6]), 28.1 ± 0.6 nM in the experiment with K562 (setting [3]), more than 100 nM in the experiment with MOLM14-D835Y (setting [4]) and 28.1 ± 0.4 nM in the experiment on KCL22 (setting [5]).

With `CN1CCN(Cc2ccc(NC(=O)c3cncc(C#Cc4cnc5ncccn45)c3)cc2C(F)(F)F)CC1` [HSL382, 5-(imidazo[1,2-a]pyrimidin-3-ylethynyl)-N-(4-((4-methylpiperazin-1-yl)methyl)-3-(trifluoromethyl)phenyl)nicotinamide], the IC50 in the experiment with MOLM14-F691L (setting [6]) is more than 100 nM; with MOLM14 (setting [1]), 5.15 ± 0.09 nM; in the experiment with KCL22-IR (setting [2]), more than 100 nM; in the experiment on K562 (setting [3]), more than 100 nM; in the experiment on MOLM14-D835Y (setting [4]), more than 100 nM; in the experiment with KCL22 (setting [5]), more than 100 nM.

As for `Cc1ccc(C(=O)Nc2ccc(CN3CCN(C)CC3)c(C(F)(F)F)c2)cc1C#Cc1cnc2cccnn12` [Ponatinib, reference compound], the IC50 in the experiment with MOLM14-F691L (MOLM-14, read-out: IC50 MOLM14-F691L) was 6.8 nM; in the experiment on MOLM14 (MOLM-14, read-out: IC50 MOLM14) it was 0.45 nM; in the experiment with KCL22-IR, 0.66 nM; in the experiment with K562 (K562, read-out: IC50 K562) it was 0.6 nM; in the experiment with MV-4-11 (MV4-11, read-out: IC50 MV-4-11) it was 0.09 nM; in the experiment with MOLM13-res, 24.1 nM. In addition, the IC50 was determined as 52.6 nM with MOLM14-D835Y (read-out: IC50 MOLM14-D835Y); 0.14 nM in the experiment on KCL22 (KCL-22, read-out: IC50 KCL22); 128 nM in the experiment on H520 (NCI-H520, read-out: IC50 H520); 35.1 nM with LC2/Ad.

On to `CN1CCN(Cc2ccc(C(=O)Nc3cncc(C#Cc4cnc5cccnn45)c3)cc2C(F)(F)F)CC1` [HSL338, N-(5-(imidazo[1,2-b]pyridazin-3-ylethynyl)pyridin-3-yl)-4-((4-methylpiperazin-1-yl)methyl)-3-(trifluoromethyl)benzamide], for which the IC50 came out at 0.075 ± 0.0005 nM in the experiment with MOLM14 (setting [1]); 4.2 ± 0.04 nM with KCL22-IR (setting [2]); 0.45 ± 0.002 nM in the experiment on K562 (setting [3]); 7.4 ± 0.04 nM in the experiment with MOLM14-D835Y (setting [4]); 1.4 ± 0.02 nM in the experiment with KCL22 (setting [5]).

In the case of `CN1CCN(Cc2ccc(NC(=O)c3cncc(C#Cc4cncc5nccn45)c3)cc2C(F)(F)F)CC1` [HSL407, 5-(imidazo[1,2-a]pyrazin-5-ylethynyl)-N-(4-((4-methylpiperazin-1-yl)methyl)-3-(trifluoromethyl)phenyl)nicotinamide], the IC50 came to 6.87 ± 0.13 nM in the experiment on MOLM14-F691L (setting [6]); 49.7 ± 2.5 nM in the experiment on KCL22-IR (setting [2]); 1.83 ± 0.02 nM in the experiment with K562 (setting [3]); 42.9 ± 0.7 nM in the experiment with MOLM14-D835Y (setting [4]); 2.93 ± 0.04 nM in the experiment on KCL22 (setting [5]).

On to `Cc1ncc(C(=O)Nc2ccc(CN3CCN(C)CC3)c(C(F)(F)F)c2)cc1C#Cc1cnc2cccnn12` [HSL420, 5-(imidazo[1,2-b]pyridazin-3-ylethynyl)-6-methyl-N-(4-((4-methylpiperazin-1-yl)methyl)-3-(trifluoromethyl)phenyl)nicotinamide], for which the IC50 in the experiment on MOLM14-F691L (setting [6]) came to 0.57 ± 0.004 nM; with KCL22-IR (setting [2]), 0.46 ± 0.01 nM; in the experiment with K562 (setting [3]), 0.059 ± 0.002 nM; in the experiment with MOLM14-D835Y (setting [4]), 2.24 ± 0.08 nM; with KCL22 (setting [5]), 0.06 ± 0.002 nM.
